Data: PubChem BioAssay (NCI)
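Grown in 96-well plates, cells were treated for 48 hours with each compound at five concentrations. Insufficient inhibition: endpoint recorded as highest concentration tested. GI50 is the concentration that inhibits growth by half. TGI marks complete inhibition of growth.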

Assays:
Test in all cases: NCI anticancer screen, dose series, 48 h
[1] = system: NCI-H522 lung
[2] = system: CCRF-CEM leukemia
[3] = system: EKVX NSCLC
[4] = system: NCI-H23 lung
[5] = system: KM12 colon
[6] = system: SK-MEL-28 melanoma
[7] = system: ACHN renal
[8] = system: UO-31 renal
[9] = system: SF-539 CNS
[10] = system: HOP-92 NSCLC

SMILES | GI50 [1] [µM] | TGI [1] [µM] | GI50 [2] [µM] | TGI [2] [µM] | GI50 [3] [µM] | TGI [3] [µM] | GI50 [4] [µM] | TGI [4] [µM] | GI50 [5] [µM] | TGI [5] [µM] | GI50 [6] [µM] | TGI [6] [µM] | GI50 [7] [µM] | TGI [7] [µM] | GI50 [8] [µM] | TGI [8] [µM] | GI50 [9] [µM] | TGI [9] [µM] | GI50 [10] [µM] | TGI [10] [µM]
O=C1C=Cc2c1ccc1ccccc21 | 27.6 | > 100 | 14.8 | 43.9 | 12.6 | 61.3 | 27.4 | 85.2 | 24.5 | 77.5 | 80.4 | > 100 | 17.1 | 58.7 | 26.7 | > 100 | – | – | – | –
COc1ccc(/C(C#N)=C/c2cc(OC)c(OC)c(OC)c2)cc1 | 15.7 | 56.3 | 22.1 | 78.6 | – | – | 20.1 | 88.4 | 12.7 | > 100 | 27.4 | > 100 | 23.5 | > 100 | 15.3 | 68.8 | 16.1 | 58 | – | –
C=C1C(=O)O[C@H]2[C@H]1CC/C(Cn1cc(-c3ccc(F)cc3)nn1)=C\CC[C@@]1(C)O[C@@H]21 | – | – | 0.247 | 0.75 | 1.49 | 2.97 | 1.78 | 3.71 | 1.7 | 3.43 | 0.822 | 2.21 | 0.182 | 0.445 | 1.22 | 2.51 | 0.271 | 1.08 | 0.349 | 1.12
NCCNC(=O)c1cccc2cc3ccccc3nc12 | – | > 100 | – | – | – | 17.5 | – | 10.6 | – | 20.4 | – | 9.71 | – | – | – | > 28.5 | – | 16.9 | – | > 100
NC(=O)c1cccc(OCC(O)CO)c1 (centres undefined) | – | > 100 | – | > 100 | – | > 100 | – | > 100 | – | > 100 | – | > 100 | – | > 100 | – | > 100 | – | > 100 | – | –
COc1ccc2oc(-c3ccc(OC)c(OC)c3OC)cc(=O)c2c1 | – | 68.3 | – | > 100 | – | > 100 | – | > 100 | – | – | – | > 100 | – | > 100 | – | – | – | > 100 | – | > 100
CC(=O)/C=C/C1=C(c2csc3ccccc23)c2ccccc2CC1 | 14.2 | 67.9 | 23.2 | 79.4 | 30.4 | > 100 | – | – | 14.1 | 33.8 | 16.9 | 37.1 | 25.4 | 88.3 | 11.6 | 41.2 | 26.4 | 71 | 19.5 | 65.3
COc1ccc(/C=C2\SC(=Nc3ccccc3)NC2=O)cc1 | 4.54 | 24.9 | 5.4 | > 100 | – | – | 8.6 | 80.5 | 4.37 | 22 | 8.06 | 44.8 | 5.53 | 48.5 | 6.97 | > 100 | 3.6 | 15.1 | 7.64 | 53.5
Cc1ccc(NC(=O)/C(Cc2cc(=O)oc3cc(O)ccc23)=N\NC(C)(C)C)cc1C | – | – | – | > 100 | – | – | – | > 100 | – | > 100 | – | > 100 | – | > 100 | – | > 100 | – | > 100 | – | > 100
COc1cc(C(=O)O[C@H](C(=O)NCCN(C)CCNC(=O)[C@@H](OC(=O)c2cc(OC)cc3c(C)cccc23)[C@]2(C)CO2)[C@]2(C)CO2)c2cccc(C)c2c1 | – | – | < 0.01 | – | 0.106 | 1.72 | < 0.01 | 0.0137 | 0.0549 | 0.465 | 0.171 | 0.512 | – | – | 0.417 | > 100 | < 0.01 | 0.0504 | 0.0192 | 0.173
CN(C)CCCC1(c2ccc(F)cc2)OCc2cc(-c3cc4ccccc4s3)ccc21 (centres undefined) | 1.7 | 3.28 | – | – | 1.66 | 3.07 | 1.76 | 3.34 | 1.74 | 3.45 | 1.81 | 3.22 | 1.66 | 3.02 | 1.24 | 2.49 | 1.7 | 3.09 | 1.33 | 2.95
COC(=O)C(=O)C(C(=O)C(=O)Nc1ccccc1OC)c1nc2ccc([N+](=O)[O-])cc2[nH]c1=O (centres undefined) | – | > 100 | – | > 100 | – | > 100 | – | – | – | > 100 | – | > 100 | – | > 100 | – | > 100 | – | > 100 | – | > 100
COc1cc2c(cc1OC)C1Cc3ccc(OC)c(OC)c3C[N+]1([O-])CC2 (centres undefined) | – | > 100 | – | > 100 | – | > 100 | – | > 100 | – | > 100 | – | > 100 | – | > 100 | – | > 100 | – | > 100 | – | –
NC(N)=NC(N)=NCCCc1ccco1 | > 500 | > 500 | 21.8 | 121 | – | – | 463 | > 500 | 109 | > 500 | 23.1 | 91.3 | > 500 | > 500 | 65.2 | 195 | 108 | 268 | 57.5 | 158
COc1ccc2c(c1)NC1(O)c3ccccc3C(=O)C21O (centres undefined) | – | > 100 | – | > 100 | – | – | – | > 100 | – | > 100 | – | > 100 | – | > 100 | – | > 100 | – | > 100 | – | > 100
C=C1C(=O)O[C@H]2[C@H]1CC/C(COC(=O)CCCc1c[nH]c3ccccc13)=C\CC[C@@]1(C)O[C@@H]21 | 1.57 | 3.47 | 0.715 | 7.5 | 2.02 | 5.01 | 1.72 | 3.47 | 1.89 | 4.31 | 1.7 | 3.27 | – | – | 1.41 | 2.73 | 1.63 | 3.07 | 1.68 | 3.46
CC(C)(C)N/N=C(\C(=O)Nc1nc(=S)[nH][nH]1)C1C(=O)Nc2ccccc2S1=O (centres undefined) | – | > 100 | – | > 100 | – | > 100 | – | > 100 | – | > 100 | – | > 100 | – | > 100 | – | > 100 | – | > 100 | – | –
